The source of these data is patent US20230174584A1, “Antibiotic Compounds” (priority 2019, published 2023).

Usually MIC stands for the lowest concentration found to suppress growth. Read a low MIC as greater potency.

Common to all, as to assay: MIC assay
Type in all cases: cell-based, Enterococcus faecium

For experiment [1], the system named is E. faecium E1130. Conditions: E. faecium E1130, VanA. In a few lines:
(§1)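 Broth microdilution per CLSI in TSB with 0.002% polysorbate 80; 2-fold compound series mixed with an equal volume of 10^6 CFU/mL inoculum, then 24 h at 37 °C with 600 rpm shaking. MIC in μg/mL is the median of at least triplicates.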

Experiment [2] has as its system E. faecium E1679. Conditions: E. faecium E1679, VanA. In short, it runs like this: as §1
In experiment [3] the test system is E. faecium E0013. Conditions: E. faecium E0013, VanA. In a few lines:
as §1

Experiment [4] relates to E. faecium E7424. The settings on record: E. faecium E7424, VanB. In short, it runs like this: as §1
Experiment [5] deals with E. faecium E0072. The settings on record: E. faecium E0072, VanA. In short, it runs like this: as §1
Experiment [6] relates to E. faecium E8237. The settings on record: E. faecium E8237, VanA. In short, it runs like this: as §1
Experiment [7] concerns E. faecium E0506. The settings on record: E. faecium E0506, VanA. In short, it runs like this:
as §1

Experiment [8] has as its system E. faecium E7319. The settings on record: E. faecium E7319, VanA. In a few lines: as §1
Experiment [9] deals with E. faecium E0300. Conditions: E. faecium E0300, VanA. In a few lines:
as §1

Experiment [10] concerns E. faecium E8235. Conditions: E. faecium E8235, VanB. In short, it runs like this:
as §1

Experiment [11] deals with E. faecium E0333. Conditions: E. faecium E0333, VanA. In short, it runs like this:
as §1

Experiment [12] relates to E. faecium E2373. Conditions: E. faecium E2373, VanA. In a few lines:
as §1

In experiment [13] the test system is E. faecium E980. In short, it runs like this:
as §1

Experiment [14] concerns E. faecium E7464. The settings on record: E. faecium E7464, VanB. In short, it runs like this:
as §1

In experiment [15] the test system is E. faecium EO321. The settings on record: E. faecium EO321, VanA. In a few lines:
as §1

The test system of experiment [16] is E. faecium E8218. Conditions: E. faecium E8218, VanB. In short, it runs like this:
as §1

For experiment [17], the system named is E. faecium E1763. The settings on record: E. faecium E1763, VanA. In short, it runs like this:
as §1

Experiment [18] deals with E. faecium E7413. Conditions: E. faecium E7413, VanA. In short, it runs like this: as §1
The test system of experiment [19] is E. faecium E0745. The settings on record: E. faecium E0745, VanA. In short, it runs like this: as §1
Experiment [20] has as its system E. faecium E6016. The settings on record: E. faecium E6016, VanA. In a few lines:
as §1

Experiment [21] relates to E. faecium E7401. Conditions: E. faecium E7401, VanB. In a few lines:
as §1

Converted amounts (≈) assume the structure as drawn.

`CCCCCCCNC(N)=Nc1ccc(CN[C@@]2(C)C[C@H](O[C@H]3[C@H](Oc4c5cc6cc4Oc4ccc(cc4Cl)[C@@H](O)[C@@H](NC(=O)[C@@H](CC(C)C)NC)C(=O)N[C@@H](CC(N)=O)C(=O)N[C@H]6C(=O)N[C@H]4C(=O)N[C@H](C(=O)N[C@H](C(=O)O)c6cc(O)cc(O)c6-c6cc4ccc6O)[C@H](O)c4ccc(c(Cl)c4)O5)O[C@H](CO)[C@@H](O)[C@@H]3O)O[C@@H](C)[C@H]2O)cc1` [Compound 5]: the MIC in experiment [1] was no more than 0.008 µg/mL; in experiment [2] it was 16 µg/mL (≈ 9.44 µM); in experiment [3], 4 µg/mL (≈ 2.36 µM); in experiment [4], no more than 0.008 µg/mL; in experiment [5], 0.25 µg/mL (≈ 0.148 µM); in experiment [6], 8 µg/mL (≈ 4.72 µM). The minimum inhibitory concentration (MIC) in experiment [7] was 2 µg/mL (≈ 1.18 µM); in experiment [8], 0.5 µg/mL (≈ 0.295 µM); in experiment [9] it was 4 µg/mL (≈ 2.36 µM); in [10], no more than 0.008 µg/mL; in [11], 8 µg/mL (≈ 4.72 µM); in experiment [12] it was 4 µg/mL (≈ 2.36 µM). Moreover, the MIC in experiment [13] (E. faecium E980 VSE) was no more than 0.007812 µg/mL; in experiment [14], no more than 0.008 µg/mL; in experiment [15], 8 µg/mL (≈ 4.72 µM); in experiment [16] it was no more than 0.008 µg/mL; in experiment [17], 0.25 µg/mL (≈ 0.148 µM); in [18], 8 µg/mL (≈ 4.72 µM). The MIC in experiment [19] is 1 µg/mL (≈ 0.59 µM); in experiment [20], 1 µg/mL (≈ 0.59 µM); in [21] it was no more than 0.008 µg/mL.
Take `CCCCCCCCNC(N)=Nc1ccc(CN[C@@]2(C)C[C@H](O[C@H]3[C@H](Oc4c5cc6cc4Oc4ccc(cc4Cl)[C@@H](O)[C@@H](NC(=O)[C@@H](CC(C)C)NC)C(=O)N[C@@H](CC(N)=O)C(=O)N[C@H]6C(=O)N[C@H]4C(=O)N[C@H](C(=O)N[C@H](C(=O)O)c6cc(O)cc(O)c6-c6cc4ccc6O)[C@H](O)c4ccc(c(Cl)c4)O5)O[C@H](CO)[C@@H](O)[C@@H]3O)O[C@@H](C)[C@H]2O)cc1` [Compound 6]: the minimal inhibitory concentration (MIC) in [1] was no more than 0.008 µg/mL; in [2], 8 µg/mL (≈ 4.68 µM); in [3], 1 µg/mL (≈ 0.585 µM); in experiment [4], no more than 0.008 µg/mL; in experiment [5], 0.5 µg/mL (≈ 0.293 µM); in experiment [6] it was 2 µg/mL (≈ 1.17 µM). The MIC was 2 µg/mL (≈ 1.17 µM) in experiment [7]; 0.125 µg/mL (≈ 0.0732 µM) in experiment [8]; 2 µg/mL (≈ 1.17 µM) in experiment [9]; no more than 0.008 µg/mL in experiment [10]; 4 µg/mL (≈ 2.34 µM) in experiment [11]; 2 µg/mL (≈ 1.17 µM) in experiment [12]. Further, the MIC in experiment [13] (E. faecium E980 VSE) was 0.01562 µg/mL (≈ 0.00914 µM); in experiment [14], no more than 0.008 µg/mL; in experiment [15], 4 µg/mL (≈ 2.34 µM); in [16], no more than 0.008 µg/mL; in [17], 0.031 µg/mL (≈ 0.0181 µM); in experiment [18] it was 4 µg/mL (≈ 2.34 µM). The MIC in experiment [19] is 0.25 µg/mL (≈ 0.146 µM); in [20], 0.5 µg/mL (≈ 0.293 µM); in [21] it was no more than 0.008 µg/mL.
As to `CCCCCCCCCNC(N)=Nc1ccc(CN[C@@]2(C)C[C@H](O[C@H]3[C@H](Oc4c5cc6cc4Oc4ccc(cc4Cl)[C@@H](O)[C@@H](NC(=O)[C@@H](CC(C)C)NC)C(=O)N[C@@H](CC(N)=O)C(=O)N[C@H]6C(=O)N[C@H]4C(=O)N[C@H](C(=O)N[C@H](C(=O)O)c6cc(O)cc(O)c6-c6cc4ccc6O)[C@H](O)c4ccc(c(Cl)c4)O5)O[C@H](CO)[C@@H](O)[C@@H]3O)O[C@@H](C)[C@H]2O)cc1` [Compound 7], the MIC is no more than 0.008 µg/mL in experiment [1]; 4 µg/mL (≈ 2.32 µM) in experiment [2]; 0.5 µg/mL (≈ 0.29 µM) in experiment [3]; no more than 0.008 µg/mL in experiment [4]; 0.125 µg/mL (≈ 0.0726 µM) in experiment [5]; 1 µg/mL (≈ 0.58 µM) in experiment [6]. The MIC in experiment [7] was 0.5 µg/mL (≈ 0.29 µM); in [8], 0.063 µg/mL (≈ 0.0366 µM); in experiment [9], 0.5 µg/mL (≈ 0.29 µM); in experiment [10], no more than 0.008 µg/mL; in experiment [11], 1 µg/mL (≈ 0.58 µM); in experiment [12], 0.5 µg/mL (≈ 0.29 µM). Also, the MIC in experiment [13] (E. faecium E980 VSE) was 0.03125 µg/mL (≈ 0.0181 µM); in experiment [14], no more than 0.008 µg/mL; in experiment [15] it was 1 µg/mL (≈ 0.58 µM); in experiment [16], no more than 0.008 µg/mL; in experiment [17], no more than 0.008 µg/mL; in experiment [18], 2 µg/mL (≈ 1.16 µM). Further, the MIC is 0.125 µg/mL (≈ 0.0726 µM) in experiment [19], 0.25 µg/mL (≈ 0.145 µM) in [20] and no more than 0.008 µg/mL in [21].
`CCCCCCN(CCCCCC)C(N)=Nc1ccc(CN[C@@]2(C)C[C@H](O[C@H]3[C@H](Oc4c5cc6cc4Oc4ccc(cc4Cl)[C@@H](O)[C@@H](NC(=O)[C@@H](CC(C)C)NC)C(=O)N[C@@H](CC(N)=O)C(=O)N[C@H]6C(=O)N[C@H]4C(=O)N[C@H](C(=O)N[C@H](C(=O)O)c6cc(O)cc(O)c6-c6cc4ccc6O)[C@H](O)c4ccc(c(Cl)c4)O5)O[C@H](CO)[C@@H](O)[C@@H]3O)O[C@@H](C)[C@H]2O)cc1` [Compound 12]: the MIC is no more than 0.008 µg/mL in experiment [1]; 8 µg/mL (≈ 4.53 µM) in experiment [2]; 2 µg/mL (≈ 1.13 µM) in [3]; no more than 0.008 µg/mL in experiment [4]; 0.25 µg/mL (≈ 0.142 µM) in experiment [5]; 2 µg/mL (≈ 1.13 µM) in experiment [6]. Moreover, the MIC in experiment [7] was 1 µg/mL (≈ 0.567 µM); in [8], 0.25 µg/mL (≈ 0.142 µM); in [9] it was 1 µg/mL (≈ 0.567 µM); in [10], no more than 0.008 µg/mL; in experiment [11], 2 µg/mL (≈ 1.13 µM); in experiment [12] it was 1 µg/mL (≈ 0.567 µM). The MIC in experiment [13] (E. faecium E980 VSE) was no more than 0.007812 µg/mL; in experiment [14], no more than 0.008 µg/mL; in experiment [15], 2 µg/mL (≈ 1.13 µM); in experiment [16], no more than 0.008 µg/mL; in experiment [17] it was 0.031 µg/mL (≈ 0.0176 µM); in experiment [18] it was 2 µg/mL (≈ 1.13 µM). Besides, the MIC in experiment [19] is 0.25 µg/mL (≈ 0.142 µM); in experiment [20] it was 0.5 µg/mL (≈ 0.283 µM); in [21] it was no more than 0.008 µg/mL.
Consider `CN[C@H](CC(C)C)C(=O)N[C@H]1C(=O)N[C@@H](CC(N)=O)C(=O)N[C@H]2C(=O)N[C@H]3C(=O)N[C@H](C(=O)N[C@H](C(=O)O)c4cc(O)cc(O)c4-c4cc3ccc4O)[C@H](O)c3ccc(c(Cl)c3)Oc3cc2cc(c3O[C@@H]2O[C@H](CO)[C@@H](O)[C@H](O)[C@H]2O[C@H]2C[C@](C)(NCc3ccc(N=C(N)NC/C=C(\C)CCC=C(C)C)cc3)[C@H](O)[C@H](C)O2)Oc2ccc(cc2Cl)[C@H]1O` [Compound 14], for which the MIC was no more than 0.008 µg/mL in experiment [1]; 16 µg/mL (≈ 9.23 µM) in [2]; 2 µg/mL (≈ 1.15 µM) in [3]; no more than 0.008 µg/mL in [4]; 0.5 µg/mL (≈ 0.289 µM) in experiment [5]; 4 µg/mL (≈ 2.31 µM) in [6]. The MIC in [7] was 2 µg/mL (≈ 1.15 µM); in experiment [8] it was 0.5 µg/mL (≈ 0.289 µM); in experiment [9], 4 µg/mL (≈ 2.31 µM); in [10], no more than 0.008 µg/mL; in experiment [11] it was 8 µg/mL (≈ 4.62 µM); in [12], 4 µg/mL (≈ 2.31 µM). Also, the minimum inhibitory concentration (MIC) was no more than 0.007812 µg/mL in experiment [13] (E. faecium E980 VSE); no more than 0.008 µg/mL in experiment [14]; 8 µg/mL (≈ 4.62 µM) in experiment [15]; no more than 0.008 µg/mL in experiment [16]; 0.125 µg/mL (≈ 0.0721 µM) in experiment [17]; 8 µg/mL (≈ 4.62 µM) in experiment [18]. The minimal inhibitory concentration (MIC) in experiment [19] is 1 µg/mL (≈ 0.577 µM); in [20], 2 µg/mL (≈ 1.15 µM); in experiment [21], no more than 0.008 µg/mL.
Take `CN[C@H](CC(C)C)C(=O)N[C@H]1C(=O)N[C@@H](CC(N)=O)C(=O)N[C@H]2C(=O)N[C@H]3C(=O)N[C@H](C(=O)N[C@H](C(=O)O)c4cc(O)cc(O)c4-c4cc3ccc4O)[C@H](O[C@H]3C[C@](C)(N)[C@@H](O)[C@H](C)O3)c3ccc(c(Cl)c3)Oc3cc2cc(c3O[C@@H]2O[C@H](CO)[C@@H](O)[C@H](O)[C@H]2O[C@H]2C[C@](C)(NCc3ccc(-c4ccc(Cl)cc4)cc3)[C@@H](O)[C@H](C)O2)Oc2ccc(cc2Cl)[C@H]1O` [Oritavancin]: the MIC in [13] (Enterococcus faecium, E980) was found to be 0.0625 µg/mL (≈ 0.0349 µM).
